Laboratory results as given in PMC4581293, “Structure-Based Optimization of Inhibitors of the Aspartic Protease Endothiapepsin” (International Journal of Molecular Sciences, 2015).

Biological target: T1, endothiapepsin (Cryphonectria parasitica, UniProt P11838)
T1 construct: Endothiapepsin was purified from Suparen; purchased DSM Food Specialties, Heerlen, The Netherlands (kindly provided) Suparen
T1 sequence (P11838 90-419): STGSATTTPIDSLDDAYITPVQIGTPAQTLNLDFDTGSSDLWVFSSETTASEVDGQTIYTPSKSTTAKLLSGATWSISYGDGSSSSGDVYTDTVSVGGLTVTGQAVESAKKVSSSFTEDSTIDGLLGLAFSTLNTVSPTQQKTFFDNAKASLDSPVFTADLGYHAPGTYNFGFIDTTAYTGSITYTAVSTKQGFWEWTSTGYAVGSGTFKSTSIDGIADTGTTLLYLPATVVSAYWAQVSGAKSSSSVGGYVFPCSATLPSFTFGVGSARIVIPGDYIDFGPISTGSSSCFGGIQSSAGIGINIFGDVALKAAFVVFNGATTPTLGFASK
Test: Fluorescence-based enzymatic inhibition assay (adapted from the HIV protease assay)
Assay type: biochemical
Conditions: for IC50: 0.4 nM endothiapepsin, 1.8 μM substrate, pH 4.6, 2.1% DMSO, E/Z mixture, duplicate, ± SD; for ΔGexpt, experimental Gibbs free energy of binding: derived from the experimentally determined IC50 values using the Cheng–Prusoff equation; for LE (ligand efficiency): obtained from the IC50 values using the Cheng–Prusoff equation
Excerpt: To determine their inhibitory potency against endothiapepsin, we subjected these acylhydrazone derivatives to a fluorescence-based enzymatic inhibition assay, adapted from the HIV protease assay.
Endothiapepsin was purified from Suparen® (kindly provided by DSM Food Specialties, Heerlen, The Netherlands) by exchanging the buffer to sodium acetate buffer (0.1 M, pH 4.6) using a Vivaspin 500 (Sartorius, Rotterdam, The Netherlands) with a molecular weight cutoff at 10,000 Da.
Stock solutions (100 mM in DMSO) were prepared for acylhydrazones 2–9 (mixture of E/Z isomers). The final reaction volume was 200 μL containing 0.4 nM endothiapepsin, 1.8 μM substrate and 2.1% DMSO. The final concentration of inhibitors was 1000 μM in the first well and subsequent half dilution in next 10 wells. In the same way, blanks were prepared using DMSO instead of the inhibitor stock solutions. As substrate, Abz–Thr–Ile–Nle-p-nitro-Phe–Gln–Arg–NH2 (purchased from Bachem, Bubendorf, Switzerland) was used for the fluorescence screening assay. The assay was performed with flat bottom 96-well microplates (purchased from Greiner Bio-One, Alphen aan den Rijn, The Netherlands) using a Synergy Mx microplate reader at an excitation wavelength of 337 nm and an emission wavelength of 414 nm. […] The assay buffer (0.1 M sodium acetate buffer, pH 4.6, containing 0.001% Tween 20) was premixed with the substrate and inhibitor; endothiapepsin was added directly before the measurement. As the substrate is a fluorogenic substrate, during measurement the fluorescence increased because of substrate hydrolysis by endothiapepsin. The initial slopes of the fluorescence in the acylhydrazone-containing wells were compared to the initial slope of the blanks for data analysis.

N[C@@H](Cc1c[nH]c2ccccc12)C(=O)N/N=C/c1ccc(C(F)(F)F)cc1 [compound 2]
IC50: 7 ± 0.5 µM
ΔGexpt, experimental Gibbs free energy of binding: -7.48 kcal/mol
LE (ligand efficiency): 0.28

N[C@@H](Cc1c[nH]c2ccccc12)C(=O)N/N=C/c1cccc(C(F)(F)F)c1 [compound 3]
IC50: 244 ± 32 µM
ΔGexpt, experimental Gibbs free energy of binding: -5.38 kcal/mol
LE (ligand efficiency): 0.20

N[C@@H](Cc1c[nH]c2ccccc12)C(=O)N/N=C/c1ccccc1F [compound 4]
IC50: 38 ± 7 µM
ΔGexpt, experimental Gibbs free energy of binding: -6.48 kcal/mol
LE (ligand efficiency): 0.27

Cc1cccc(/C=N\NC(=O)[C@@H](N)Cc2c[nH]c3ccccc23)c1O [compound 5]
IC50: 36 ± 11 µM
ΔGexpt, experimental Gibbs free energy of binding: -6.5 kcal/mol
LE (ligand efficiency): 0.26

N[C@@H](Cc1c[nH]c2ccccc12)C(=O)N/N=C/c1ccccc1Br [compound 6]
IC50: 54.5 ± 0.5 µM
ΔGexpt, experimental Gibbs free energy of binding: -6.26 kcal/mol
LE (ligand efficiency): 0.26

Cc1ccccc1/C=N/NC(=O)[C@@H](N)Cc1c[nH]c2ccccc12 [compound 7]
IC50: 59 ± 4 µM
ΔGexpt, experimental Gibbs free energy of binding: -6.21 kcal/mol
LE (ligand efficiency): 0.26

Cc1cccc(C)c1/C=N/NC(=O)[C@@H](N)Cc1c[nH]c2ccccc12 [compound 8]
IC50: 30 ± 5 µM
ΔGexpt, experimental Gibbs free energy of binding: -6.62 kcal/mol
LE (ligand efficiency): 0.26

N[C@@H](Cc1c[nH]c2ccccc12)C(=O)N/N=C/c1ccccc1 [compound 9]
ΔGexpt, experimental Gibbs free energy of binding: -6.31 kcal/mol
LE (ligand efficiency): 0.27
